Source: the pKa sets of Baltruschat and Czodrowski (2020)

Row | Compound | pKa (basic group) | pKa (acidic group)
1 | COC(=O)[C@@H](N)Cc1c[nH]cn1 | 7.33 | –
2 | Cc1nc2c(C)ccc([N+](=O)[O-])c2c(NCCC[NH+](C)C)c1C | 6.67 | –
3 | CCC(=O)O[C@@]1(c2ccccc2)CCN(C)C[C@H]1C | 8.66 | –
4 | CC(=O)NCCN | 9.28 | –
5 | CCNc1ccccc1C | 4.92 | –
6 | CC(C)c1cccc(=O)c(O)c1Br | – | 6.68
7 | [O-][N+]([O-])=C(CO)CO | – | 13.5
8 | Cc1ccc(C(=O)O)s1 | -0.57 | 3.76
9 | Cc1cc(C=O)c(O)c(C=O)c1 | – | 6.2
10 | Clc1nc2cc3c(cc2[nH]1)CCCC3 | 2.68 | –
11 | CN1[C@@H]2CC[C@H]1C[C@H](OC(=O)C(O)c1ccccc1)C2 (stereo not given in full) | 9.61 | –
12 | CS(=O)(=O)c1ccc(S(=O)(=O)NCc2ccccc2)cc1 | – | 10.2
13 | COc1ccc(/N=C/N(C)C)cc1 | 9.35 | –
14 | Cc1c(Cc2c(C)n(C)[n+](-c3ccccc3)c2O)c(=O)n(-c2ccccc2)n1C | – | 1.51
15 | Nc1c(C(=O)O)[nH+]cn1[C@H]1O[C@@H](CO)[C@H](O)[C@@H]1O | – | 2.9
16 | O=[N+]([O-])c1ccc(O)c(C[NH+]2CCOCCOCCOCCOCCOCC2)c1 | – | 5.77
17 | CC(C)[C@H]1C[NH2+][C@H](C(=O)[O-])[C@H]1CC(=O)O | – | 4.23
18 | c1ccc(-c2cnc(-c3ccccc3)o2)cc1 | 0.84 | –
19 | CN1C2CCC(C2)N1C | 6.89 | –
20 | Cc1cc(C)nc(N)c1 | 7.84 | –
21 | CC(C)CN(CC(C)O)CC(C)O (stereo not given) | 8.8 | –
22 | C[n+]1ccc(C(=O)Cc2ccccc2)cc1 | – | 9.02
23 | CCc1cc(CC)c(OC)c(C(=O)NC[C@H]2CCCN2CC)c1[O-] | 9.54 | –

Row | Compound | pKa (basic group) | pKa (acidic group)
24 | [O-]c1ncncc1O | 7.48 | 11.6
25 | Sc1cnc2ccccc2c1 | 2.33 | 6.13
26 | CCCCc1cc(Cl)cc(Cl)c1O | – | 8.1
27 | N#Cc1ccc(C(=O)O)cc1 | – | 3.53
28 | CCCCN(CC(C)O)CC(C)O (stereo not given) | 9.3 | –
29 | Cc1noc(-c2ccccc2)c1C(=O)O | 1.7 | –
30 | N#Cc1ccc(N)c2ccccc12 | 1.2 | –
31 | Sc1ccc2ccccc2[nH+]1 | – | -1.44
32 | Nc1ccc(C=O)cc1 | 1.74 | –
33 | O=C1C[C@H](C(=O)O)[C@@H](C(=O)O)O1 | – | 2.26
34 | CC(=O)c1ccc(O)cc1 | – | 7.9
35 | COC(=O)c1ccc(N(C)C)cc1 | 2.61 | –
36 | COc1ccc(/C=N/O)cc1 | – | 11
37 | C=CC(=O)NC(C)(C)CCN(C)C | 9.39 | –
38 | NCC[n+]1ccc2ccccc2c1 | 6.85 | –
39 | CC(=O)C1CCCCC1=O (stereo not given) | – | 10.2
40 | CNc1cccc[n+]1O | – | 2.61
41 | CC(=O)c1ccc(Br)cc1 | – | 18
42 | CCCCNc1ncnc2[nH]ncc12 | 4.67 | 11.2
43 | CC1(C)C(=O)[CH-]C(=O)CC1=O | – | 9.73
44 | [O-]c1cc2ccccc2cc1C1=NCCN1 | 10.8 | –
45 | [NH3+]CCCCCCC#CC#CCCC(=O)O | – | 4.21
46 | CN(C)CCCCC(=O)Oc1ccc([N+](=O)[O-])cc1 | 9.9 | –

Row | Compound | pKa (basic group) | pKa (acidic group)
47 | CN1C(=N)Cc2ccccc21 | 9.6 | –
48 | CCC(N)(CC)CC | 10.9 | –
49 | CC(C)/N=C/N(C)c1ccc(-c2c[nH]cn2)cc1 | 10.4 | –
50 | Cc1ccc(S(=O)(=O)NC(=O)OC(C)(C)C)cc1 | – | 5.05
51 | CN=C1CCCCC1 | 9.43 | –
52 | CCN(O)CC | 5.62 | –
53 | CC(C)(C)NC[C@H](O)COc1nsnc1N1CCOCC1 | 9.7 | –
54 | CC(=O)C1CCCC1=O (stereo not given) | – | 7.82
55 | [O-]c1cccnc1 | 8.6 | –
56 | O/N=C/c1ccco1 | – | 10.8
57 | [NH3+]Cc1ccc(C(=O)O)cc1 | – | 3.59
58 | Nc1ccc2c(c1O)Cc1ccccc1-2 | 4.82 | –
59 | Cc1cc(C)nc(N)n1 | 4.93 | –
60 | Cc1ccc(NC=S)cc1 | – | 11.6
61 | C=C(C)[C@H]1CN[C@H](C(=O)[O-])[C@H]1CC(=O)OC | 9.52 | –
62 | CC(C)(C)P(=O)(O)C(C)(C)C | – | 4.24
63 | Nc1ccc2cccc([N+](=O)[O-])c2c1 | 2.86 | –
64 | CCN(CC1CO1)CC1CO1 (stereo not given) | 6.91 | –
65 | CC(=O)C(Cc1ccc([N+](=O)[O-])cc1)C(C)=O | – | 9.54
66 | CCNc1ccnc([S-])n1 | 11.1 | –
67 | CC(=O)c1cccnc1 | 3.32 | –
68 | C(C[NH2+]CCc1nnn[nH]1)[NH2+]CCc1nnn[nH]1 | – | 3.11
69 | Cc1cnc2cccc([N+](=O)[O-])c2c1NCCC[NH+](C)C | 6.01 | –

Row | Compound | pKa (basic group) | pKa (acidic group)
70 | Nc1ccc(S(=O)(=O)Nc2nccs2)cc1 | 2.35 | 7.25
71 | CCCCN[N+](=O)[O-] | – | 6.48
72 | CCCCCCNc1ccccc1 | 5.21 | –
73 | CC(C)=CCC1C(=O)C(CC=C(C)C)(CC=C(C)C)C(O)(C(=O)O)C1=O (stereo not given) | – | 3.9
74 | CC[NH+]1CCC[C@@H]1CNC(=O)c1c(O)c(Cl)cc(Cl)c1OC | – | 5.75
75 | COc1ccc(Nc2ccc(N)cc2)cc1 | 5.9 | –
76 | Nc1ccc(S(=O)(=O)Nc2ccc(O)cn2)cc1 | – | 7.5
77 | O=C(c1ccccc1)n1cnc2ccccc21 | 1.8 | –
78 | C[NH+](C)Cc1cc([N+](=O)[O-])ccc1O | – | 5.75
79 | Cc1ccc2ccc(O)cc2c1 | – | 9.52
80 | Oc1ccccc1Br | – | 8.4
81 | Cn1ncc2c(NCc3ccco3)ncnc21 | 3.8 | –
82 | NS(=O)(=O)c1cccc([N+](=O)[O-])c1 | – | 9.19
83 | Cc1cc(/N=N/c2nc3ccccc3s2)c2cccnc2c1O | – | 7.5
84 | Brc1cncc2ccccc12 | 3.54 | –
85 | CC(C)C1C(=O)c2ccccc2C1=O | – | 7.4
86 | C[NH+](C)CCNC(=O)/C=N/O | – | 8.17
87 | CN(C)c1ccc(C2CN3CCC2CC3)cc1 (stereo not given) | 10.3 | –
88 | COC1=CC=C2[C@@H]3Cc4ccc(OC)c5c4[C@]2(CCN3C)[C@@H]1O5 | 8.15 | –
89 | Nc1nc2c(ncn2[C@H]2O[C@@H](CO)[C@H](O)[C@@H]2O)c(O)[nH+]1 | – | 1.9
90 | O=C(/C=N/O)/C=N/O | – | 7.65
91 | C[n+]1ccc2cccc(O)c2c1 | – | 5.81
92 | COc1ccc(-c2nc3ncncc3[nH]2)c(OC)c1 | 3.09 | 9.92

Row | Compound | pKa (basic group) | pKa (acidic group)
93 | c1ccc(-c2ncc[nH]2)cc1 | 6.39 | –
94 | Nc1ccnc(-c2cc(Cl)ccn2)c1 | 7.4 | –
95 | Nc1ccnnc1 | 6.69 | –
96 | O=[N+]([O-])c1ccc([O-])c(O)c1 | – | 10.9
97 | CCCCCCCCCCCCCCCC[NH+](CCCCCCCCCCCCCCCC)CCCn1ccnc1 | 4.4 | –
98 | CCCCCCCCCCCCN(CC(O)CC)CC(O)CC (stereo not given) | 5.6 | –
99 | CCCCCCN(CCO)CC(O)CC (stereo not given) | 9.1 | –
100 | c1coc(CNCC[NH2+]Cc2ccco2)c1 | 5.74 | –
101 | CC(O)CNC(C)(C)C (stereo not given) | 10 | –
102 | CN1CCC1 | 10.4 | –
103 | O=C(Cc1ccccc1Nc1c(Cl)cccc1Cl)OCCCCN1CCOCC1 | 8.4 | –
104 | CCNCCC(=O)[O-] | 10.6 | –
105 | CC(C)C(=O)CC=O | – | 6.68
106 | CC(C)(C)CN | 10.2 | –
107 | O=C(NCCCN1CCOCC1)c1ccc(Cl)cc1 | 6.81 | –
108 | C[Si](C)(C)OC1CN(Cc2ccccc2)C1 | 8.08 | –
109 | CCN(CC)CCNc1nc(C)cc(N)n1 | 9.8 | –
110 | CCCc1nnn[nH]1 | – | 5.61
111 | C[Si](C)(C)c1ccc(N)cc1 | 4.36 | –
112 | C[NH+](C)CCCNc1c2ccccc2nc2c(F)ccc([N+](=O)[O-])c12 | 5.41 | –
113 | CCOC(=O)COc1ccc(S(=O)(=O)c2ccc(O)c(C[NH3+])c2)c(Cl)c1Cl | – | 6.67
114 | O=C(O)c1cccc(Br)c1 | – | 3.79
115 | CC(=O)c1cccc(=O)c(O)c1 | – | 6.16

Row | Compound | pKa (basic group) | pKa (acidic group)
116 | CC(=O)c1ccc(Cl)cc1 | – | 18.1
117 | O=C(O)c1cc([N+](=O)[O-])ccc1Sc1ccccc1 | – | 3.22
118 | Nc1cc(N)c2ccccc2n1 | 9.45 | –
119 | O=C(c1ccc(Cl)cc1)c1cc[nH]n1 | – | 11.9
120 | O=[N+]([O-])c1ccc(O)c(C[NH+]2CCCCC2)c1 | – | 5.88
121 | COC(=O)/C=C(/C)O | – | 9.48
122 | CC(=O)NO | – | 9.07
123 | N[C@@H](CCC(=O)[O-])C(=O)[O-] | 9.33 | –
124 | COC(=O)/C(=N/O)c1ccccc1 | – | 8.87
125 | CC1(C)CC(=O)C=C(N2CCCC2)C1 | 3.15 | –
126 | Cc1cc(C)cc(N)c1 | 4.81 | –
127 | [O-]c1ccc(Nc2ccc(O)cc2)cc1 | – | 10.6
128 | CC(C)(C)c1ccc(-c2c(O)c2=O)cc1 | – | 2.21
129 | Cc1cc(/N=N/c2ccc(S([NH-])(=O)=O)cc2)cc(C(=O)[O-])c1O | – | 12.1
130 | [NH3+][C@@H](Cc1c[nH]c[nH+]1)C(=O)N[C@@H](Cc1c[nH]c[nH+]1)C(=O)O | – | 2.25
131 | CCc1c(-c2ccccc2)n[nH]c1O | – | 7.8
132 | Nc1ccc(-c2ncc(-c3ccc(Br)cc3)o2)cc1 | 2.8 | –
133 | Nc1ccc([N+](=O)[O-])c(B(O)O)c1 | – | 10
134 | CCOc1ccc2nccc([C@@H](O)[C@@H]3C[C@H]4CCN3C[C@@H]4CC)c2c1 | 8.5 | –
135 | CN(C)CCOCCN(C)C | 9.8 | –
136 | S=C(Nc1ccc(Br)cc1)c1ccc(Cl)cc1 | – | 10.2
137 | CCCCCCP(=O)(CCCCCC)CCCCCC | – | 12.8
138 | CC[NH2+]CC[SeH] | – | 5.04

Row | Compound | pKa (basic group) | pKa (acidic group)
139 | Ic1ccc(-c2nnn[nH]2)cc1 | – | 3.88
140 | COc1ccc([C@H]2C[C@@H]2C(=O)O)cc1 | – | 4.62
141 | C[NH+](C)c1ccc(/N=N/c2ccncc2)cc1 | 3.4 | –
142 | O=C(O)C[C@]1(O)C[C@H]2C=C[C@@H]1C2 | – | 4.36
143 | [O-][n+]1cnc(NCc2ccccc2)c2nc[nH]c21 | 2.86 | 7.27
144 | O/N=C(/NO)c1ccccc1 | 3.8 | 10.7
145 | Cn1nnnc1CC(=O)O | – | 2.83
146 | CN(C)CCNCC[NH+](C)C | 8.96 | –
147 | c1c[nH]c(P(c2[nH]cc[nH+]2)c2[nH]cc[nH+]2)n1 | 5.26 | –
148 | Cc1ccc(C(=O)O)cc1C | – | 4.41
149 | [NH3+]CCc1ccccc1O | – | 9.19
150 | C=CC(=O)NCCCN(C)C | 9.23 | –
151 | CNc1nc(SC)nc2[nH]ncc12 | 3.61 | 11.4
152 | Nc1nc(N(CCO)CCO)nc(N(CCO)CCO)n1 | 5.15 | –
153 | CN(C)CCCNc1ccnc2ccccc12 | 8.85 | –
154 | NCCCC(=O)[O-] | 10.5 | –
155 | CNCCCNC(=O)/C=N/[O-] | 10.6 | –
156 | CCCCNc1ccnc([S-])n1 | 11.1 | –
157 | NCCc1ccc(O)cc1 | 9.45 | 10.8
158 | COc1ccc(CN)cc1 | 9.67 | –
159 | CC(=O)NOC(C)=O | – | 6.81
160 | Cc1cccc(Cl)c1C(=O)O | – | 2.59
